Data published in US9492471B2, “Methods of treating a disease or disorder associated with Bruton'S Tyrosine Kinase” (Celgene Avilomics Research, Inc., priority 2013, dated 2016).
Read-outs that look alike come from different tables or passages of the source.

What was measured:
Test in all cases: HotSpot kinase profiling
Type in all cases: biochemical
BRSK1 = target: T1, BRSK1 (Homo sapiens, UniProt Q8TDC3)
T1 construct: purchased Reaction Biology Corp
T1 sequence (Q8TDC3 1-778): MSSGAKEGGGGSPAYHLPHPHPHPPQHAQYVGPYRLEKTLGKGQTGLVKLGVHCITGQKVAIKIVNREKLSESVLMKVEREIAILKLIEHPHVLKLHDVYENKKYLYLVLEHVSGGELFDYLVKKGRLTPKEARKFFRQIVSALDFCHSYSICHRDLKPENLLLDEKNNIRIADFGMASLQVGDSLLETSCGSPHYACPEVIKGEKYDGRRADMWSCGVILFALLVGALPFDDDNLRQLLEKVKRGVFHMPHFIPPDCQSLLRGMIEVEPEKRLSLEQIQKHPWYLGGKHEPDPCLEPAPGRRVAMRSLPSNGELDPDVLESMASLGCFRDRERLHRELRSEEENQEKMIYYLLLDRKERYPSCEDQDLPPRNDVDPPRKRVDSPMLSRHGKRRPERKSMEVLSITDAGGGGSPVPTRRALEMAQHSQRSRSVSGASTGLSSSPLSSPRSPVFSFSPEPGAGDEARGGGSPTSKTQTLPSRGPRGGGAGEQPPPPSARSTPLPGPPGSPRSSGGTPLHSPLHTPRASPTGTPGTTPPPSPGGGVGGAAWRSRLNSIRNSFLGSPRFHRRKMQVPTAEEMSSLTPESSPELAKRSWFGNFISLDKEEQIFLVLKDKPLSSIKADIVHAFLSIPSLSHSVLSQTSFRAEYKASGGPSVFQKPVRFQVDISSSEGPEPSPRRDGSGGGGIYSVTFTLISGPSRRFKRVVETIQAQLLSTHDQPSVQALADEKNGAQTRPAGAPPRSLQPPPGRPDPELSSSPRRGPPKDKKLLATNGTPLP
Summary of the method: (§1)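 Radio-isotope P81 filtration format. Substrate + required cofactors in reaction buffer, kinase added, 2 h RT. Stop, wash with 0.1% phosphoric acid, detect. % inhibition vs DMSO; mean of duplicates where repeated.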

PKCa = target: T2, PKCa (Homo sapiens, UniProt P17252)
T2 construct: purchased Reaction Biology Corp
Summary of the method: as §1

TTBK1 = target: T3, TTBK1 (Homo sapiens, UniProt Q5TCY1)
T3 construct: purchased Reaction Biology Corp
T3 sequence (Q5TCY1 whole entry): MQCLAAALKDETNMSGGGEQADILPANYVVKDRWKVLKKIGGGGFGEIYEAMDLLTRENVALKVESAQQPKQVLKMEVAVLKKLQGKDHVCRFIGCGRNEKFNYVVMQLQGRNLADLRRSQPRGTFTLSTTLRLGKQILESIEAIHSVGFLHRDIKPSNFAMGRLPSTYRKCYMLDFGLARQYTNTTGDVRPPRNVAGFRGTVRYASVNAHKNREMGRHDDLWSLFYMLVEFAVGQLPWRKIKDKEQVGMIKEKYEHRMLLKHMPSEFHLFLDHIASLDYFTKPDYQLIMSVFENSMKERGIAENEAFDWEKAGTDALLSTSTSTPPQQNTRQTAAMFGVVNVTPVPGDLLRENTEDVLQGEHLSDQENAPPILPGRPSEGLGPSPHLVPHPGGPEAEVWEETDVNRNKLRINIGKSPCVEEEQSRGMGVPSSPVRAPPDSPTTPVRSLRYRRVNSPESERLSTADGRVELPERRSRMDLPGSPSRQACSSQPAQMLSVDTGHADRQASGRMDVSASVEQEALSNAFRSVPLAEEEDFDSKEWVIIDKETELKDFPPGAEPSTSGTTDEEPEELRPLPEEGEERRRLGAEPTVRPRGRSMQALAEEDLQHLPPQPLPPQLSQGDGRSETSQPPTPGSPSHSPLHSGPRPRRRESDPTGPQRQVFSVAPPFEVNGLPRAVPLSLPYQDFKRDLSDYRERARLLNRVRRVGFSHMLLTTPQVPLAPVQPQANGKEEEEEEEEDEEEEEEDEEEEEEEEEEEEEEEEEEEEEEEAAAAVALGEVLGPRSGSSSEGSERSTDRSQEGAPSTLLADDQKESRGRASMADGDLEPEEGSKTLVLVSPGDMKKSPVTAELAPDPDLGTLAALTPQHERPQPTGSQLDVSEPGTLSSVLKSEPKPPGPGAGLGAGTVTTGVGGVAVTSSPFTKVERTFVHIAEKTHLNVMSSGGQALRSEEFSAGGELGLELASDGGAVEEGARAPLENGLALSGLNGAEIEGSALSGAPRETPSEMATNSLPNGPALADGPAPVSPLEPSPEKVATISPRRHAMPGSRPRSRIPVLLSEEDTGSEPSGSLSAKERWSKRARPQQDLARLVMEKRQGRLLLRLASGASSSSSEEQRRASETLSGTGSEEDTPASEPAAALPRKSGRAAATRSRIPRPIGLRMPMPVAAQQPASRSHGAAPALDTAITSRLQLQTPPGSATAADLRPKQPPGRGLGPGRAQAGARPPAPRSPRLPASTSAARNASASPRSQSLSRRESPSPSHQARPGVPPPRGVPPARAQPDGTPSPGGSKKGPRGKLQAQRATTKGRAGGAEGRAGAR
Summary of the method: as §1

ALK1/ACVRL1 = target: T4, ALK1/ACVRL1 (Homo sapiens, UniProt P37023)
T4 construct: purchased Reaction Biology Corp
T4 sequence (P37023 22-503): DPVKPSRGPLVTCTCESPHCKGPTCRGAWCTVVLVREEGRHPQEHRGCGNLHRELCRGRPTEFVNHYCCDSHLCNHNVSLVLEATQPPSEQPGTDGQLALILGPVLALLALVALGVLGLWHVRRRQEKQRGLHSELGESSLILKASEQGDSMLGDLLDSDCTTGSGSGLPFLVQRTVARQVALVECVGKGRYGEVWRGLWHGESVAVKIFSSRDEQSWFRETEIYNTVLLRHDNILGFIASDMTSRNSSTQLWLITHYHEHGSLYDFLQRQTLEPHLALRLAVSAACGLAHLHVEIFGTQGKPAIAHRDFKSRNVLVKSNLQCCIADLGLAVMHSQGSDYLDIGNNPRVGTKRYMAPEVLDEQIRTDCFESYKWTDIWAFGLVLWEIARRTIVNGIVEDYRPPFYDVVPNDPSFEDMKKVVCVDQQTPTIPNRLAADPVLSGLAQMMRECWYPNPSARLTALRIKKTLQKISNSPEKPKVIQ
Summary of the method: as §1

CDK9/cyclin K = target: T5, CDK9/cyclin K (Homo sapiens, UniProt P50750)
T5 construct: purchased Reaction Biology Corp
T5 sequence (P50750 whole entry): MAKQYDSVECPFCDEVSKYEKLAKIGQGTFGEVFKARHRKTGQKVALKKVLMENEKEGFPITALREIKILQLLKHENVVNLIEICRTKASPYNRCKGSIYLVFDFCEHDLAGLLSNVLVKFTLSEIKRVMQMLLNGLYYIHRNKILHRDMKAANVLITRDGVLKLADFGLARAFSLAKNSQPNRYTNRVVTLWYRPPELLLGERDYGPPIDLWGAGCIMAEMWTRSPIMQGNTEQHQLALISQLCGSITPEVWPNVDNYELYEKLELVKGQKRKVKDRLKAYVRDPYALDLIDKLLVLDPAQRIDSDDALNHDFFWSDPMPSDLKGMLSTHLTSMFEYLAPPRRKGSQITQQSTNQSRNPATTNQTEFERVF
T5 sequence (O75909 whole entry partner): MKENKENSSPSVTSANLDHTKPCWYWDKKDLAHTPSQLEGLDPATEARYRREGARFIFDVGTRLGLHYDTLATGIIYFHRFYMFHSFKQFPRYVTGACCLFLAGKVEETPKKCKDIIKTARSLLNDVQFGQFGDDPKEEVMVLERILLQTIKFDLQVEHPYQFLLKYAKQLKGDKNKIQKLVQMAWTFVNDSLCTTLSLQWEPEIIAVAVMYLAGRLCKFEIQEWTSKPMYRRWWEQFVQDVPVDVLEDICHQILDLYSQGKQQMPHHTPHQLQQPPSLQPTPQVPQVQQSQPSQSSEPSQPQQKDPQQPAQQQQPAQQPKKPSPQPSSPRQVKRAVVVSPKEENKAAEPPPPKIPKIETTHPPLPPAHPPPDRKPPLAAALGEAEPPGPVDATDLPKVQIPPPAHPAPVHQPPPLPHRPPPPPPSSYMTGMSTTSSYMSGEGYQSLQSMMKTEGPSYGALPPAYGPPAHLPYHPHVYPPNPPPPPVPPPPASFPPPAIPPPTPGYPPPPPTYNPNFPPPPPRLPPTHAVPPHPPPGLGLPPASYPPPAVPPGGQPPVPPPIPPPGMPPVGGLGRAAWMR
Summary of the method: as §1

LKB1 = target: T6, LKB1 (Homo sapiens, UniProt Q15831)
T6 construct: purchased Reaction Biology Corp
T6 sequence (Q15831 1-433): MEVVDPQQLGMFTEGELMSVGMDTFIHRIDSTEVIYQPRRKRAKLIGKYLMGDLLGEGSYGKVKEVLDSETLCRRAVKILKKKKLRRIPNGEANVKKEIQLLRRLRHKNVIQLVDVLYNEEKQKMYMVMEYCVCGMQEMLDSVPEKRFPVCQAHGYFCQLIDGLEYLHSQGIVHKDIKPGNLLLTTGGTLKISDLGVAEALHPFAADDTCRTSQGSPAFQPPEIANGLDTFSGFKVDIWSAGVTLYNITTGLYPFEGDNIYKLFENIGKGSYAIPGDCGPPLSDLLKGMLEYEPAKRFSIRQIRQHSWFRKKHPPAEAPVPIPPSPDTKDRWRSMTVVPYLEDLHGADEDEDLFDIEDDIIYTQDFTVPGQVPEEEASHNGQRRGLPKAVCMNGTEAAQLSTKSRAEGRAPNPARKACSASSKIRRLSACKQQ
T6 sequence (Q7RTN6 1-431 partner): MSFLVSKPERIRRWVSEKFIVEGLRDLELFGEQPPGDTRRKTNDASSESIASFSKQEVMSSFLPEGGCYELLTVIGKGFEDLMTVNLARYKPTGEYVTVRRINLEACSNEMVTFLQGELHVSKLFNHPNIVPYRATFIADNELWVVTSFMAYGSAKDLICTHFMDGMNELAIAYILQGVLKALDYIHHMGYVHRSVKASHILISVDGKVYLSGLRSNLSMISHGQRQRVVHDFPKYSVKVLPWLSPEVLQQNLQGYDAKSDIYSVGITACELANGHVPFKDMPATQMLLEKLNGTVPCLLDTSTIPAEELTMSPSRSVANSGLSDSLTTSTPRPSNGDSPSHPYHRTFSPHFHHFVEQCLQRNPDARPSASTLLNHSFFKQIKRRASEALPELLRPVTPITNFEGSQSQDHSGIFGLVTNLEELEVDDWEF
T6 sequence (Q9Y376 1-341 partner): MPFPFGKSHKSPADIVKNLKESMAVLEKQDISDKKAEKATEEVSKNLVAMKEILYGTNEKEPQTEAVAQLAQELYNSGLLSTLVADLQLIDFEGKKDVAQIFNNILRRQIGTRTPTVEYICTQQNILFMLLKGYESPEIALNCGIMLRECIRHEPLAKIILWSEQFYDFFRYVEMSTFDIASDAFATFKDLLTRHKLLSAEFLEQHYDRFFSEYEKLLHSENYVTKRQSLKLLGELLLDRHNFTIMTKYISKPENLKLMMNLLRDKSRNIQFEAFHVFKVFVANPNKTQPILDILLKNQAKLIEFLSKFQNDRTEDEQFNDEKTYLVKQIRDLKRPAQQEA
Summary of the method: as §1

IR = target: T7, IR (Homo sapiens, UniProt P06213)
T7 construct: purchased Reaction Biology Corp
T7 sequence (P06213 28-1382): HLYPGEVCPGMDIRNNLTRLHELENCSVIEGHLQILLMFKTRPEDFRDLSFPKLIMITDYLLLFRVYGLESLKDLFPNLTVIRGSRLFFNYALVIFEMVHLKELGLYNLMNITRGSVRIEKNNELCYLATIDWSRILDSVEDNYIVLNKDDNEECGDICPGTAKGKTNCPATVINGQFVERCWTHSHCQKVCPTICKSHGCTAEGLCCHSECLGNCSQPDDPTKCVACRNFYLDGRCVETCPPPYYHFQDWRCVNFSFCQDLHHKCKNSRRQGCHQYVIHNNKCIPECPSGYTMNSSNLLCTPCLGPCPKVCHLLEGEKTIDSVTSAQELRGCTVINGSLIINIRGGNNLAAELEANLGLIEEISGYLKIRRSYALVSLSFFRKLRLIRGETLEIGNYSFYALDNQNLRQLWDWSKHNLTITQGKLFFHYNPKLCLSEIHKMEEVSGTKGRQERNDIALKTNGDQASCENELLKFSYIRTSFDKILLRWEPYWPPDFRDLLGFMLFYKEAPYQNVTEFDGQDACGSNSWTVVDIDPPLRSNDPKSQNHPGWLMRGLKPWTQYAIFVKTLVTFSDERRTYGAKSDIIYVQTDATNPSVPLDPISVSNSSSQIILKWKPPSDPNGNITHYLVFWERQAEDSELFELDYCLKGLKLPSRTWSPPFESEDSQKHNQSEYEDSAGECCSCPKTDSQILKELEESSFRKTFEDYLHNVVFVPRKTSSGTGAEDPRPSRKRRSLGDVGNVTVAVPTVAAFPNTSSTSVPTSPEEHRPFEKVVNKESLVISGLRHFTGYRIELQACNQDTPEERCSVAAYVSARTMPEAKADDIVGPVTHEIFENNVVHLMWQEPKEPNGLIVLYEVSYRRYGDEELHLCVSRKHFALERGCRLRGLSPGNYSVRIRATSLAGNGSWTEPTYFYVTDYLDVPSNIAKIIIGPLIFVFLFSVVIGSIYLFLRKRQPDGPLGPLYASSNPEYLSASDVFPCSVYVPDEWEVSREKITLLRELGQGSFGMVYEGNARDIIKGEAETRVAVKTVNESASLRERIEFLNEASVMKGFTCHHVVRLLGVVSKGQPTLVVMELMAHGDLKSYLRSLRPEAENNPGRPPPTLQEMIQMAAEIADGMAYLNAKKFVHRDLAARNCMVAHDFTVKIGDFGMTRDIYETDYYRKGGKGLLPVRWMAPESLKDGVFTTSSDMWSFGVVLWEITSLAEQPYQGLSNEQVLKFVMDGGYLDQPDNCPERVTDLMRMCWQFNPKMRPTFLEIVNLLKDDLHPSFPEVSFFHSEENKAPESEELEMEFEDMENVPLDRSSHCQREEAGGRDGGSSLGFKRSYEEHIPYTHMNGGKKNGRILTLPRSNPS
Summary of the method: as §1

[1] = read-out: % Enzyme Activity (relative to DMSO controls) Run 1
[2] = read-out: % Enzyme Activity (relative to DMSO controls) Run 2

C=CC(=O)Nc1cccc(Nc2nc(Nc3ccc(OCCOC)c(F)c3)ncc2F)c1 [Compound 2]
inhibition at 3 µM (BRSK1): 11.8%
remaining activity at 3 µM (BRSK1; [1]): 87.1%
remaining activity at 3 µM (BRSK1; [2]): 89.4%
inhibition at 3 µM (PKCa): 11.4%
remaining activity at 3 µM (PKCa; [1]): 88.4%
remaining activity at 3 µM (PKCa; [2]): 88.8%
inhibition at 3 µM (TTBK1): -1.65%
remaining activity at 3 µM (TTBK1; [1]): 101%
remaining activity at 3 µM (TTBK1; [2]): 102%
inhibition at 3 µM (ALK1/ACVRL1): -24.4%
remaining activity at 3 µM (ALK1/ACVRL1; [1]): 125%
remaining activity at 3 µM (ALK1/ACVRL1; [2]): 124%
inhibition at 3 µM (CDK9/cyclin K): 18.1%
remaining activity at 3 µM (CDK9/cyclin K; [1]): 81.7%
remaining activity at 3 µM (CDK9/cyclin K; [2]): 82.2%
inhibition at 3 µM (LKB1): 2.41%
remaining activity at 3 µM (LKB1; [1]): 99.2%
remaining activity at 3 µM (LKB1; [2]): 95.9%
inhibition at 3 µM (IR): 15.4%
remaining activity at 3 µM (IR; [1]): 84.5%
remaining activity at 3 µM (IR; [2]): 84.7%
